What was measured:
[1] = biological target: T1, hTRPM8 (Homo sapiens, UniProt Q7Z2W7); assay: Secondary in vitro screening on hTRPM8 at 5 μM versus WS-3; type: cell-based; settings: WS3 as reference compound
T1 construct: expressed in transfected cells; host or cells: CHO-KJ cells [sic]
Procedure: (§1) The compounds were evaluated in vitro on CHO-KJ cells expressing the gene encoding the hTRPM8 ion channel (Table 1). Channel activation is determined by fluorometric measurement of […] calcium using FLUO-8. The activity of the compounds was measured relative to icilin (known hTRPM8 agonist).
The compounds 1 to 40 were tested on hTRPM8 at 5 μM using WS3 as the reference compound (Table 2).

[2] = biological target: T2, hTRPM8 ion channel (Homo sapiens, UniProt Q7Z2W7); assay: Primary in vitro screening on hTRPM8 (CHO-KJ cells, FLUO-8 calcium fluorometry, relative to icilin); type: cell-based; settings: CHO-KJ cells expressing hTRPM8
T2 construct: expressed in transfected cells; host or cells: CHO-KJ cells [sic]
T2 sequence (Q7Z2W7 whole entry): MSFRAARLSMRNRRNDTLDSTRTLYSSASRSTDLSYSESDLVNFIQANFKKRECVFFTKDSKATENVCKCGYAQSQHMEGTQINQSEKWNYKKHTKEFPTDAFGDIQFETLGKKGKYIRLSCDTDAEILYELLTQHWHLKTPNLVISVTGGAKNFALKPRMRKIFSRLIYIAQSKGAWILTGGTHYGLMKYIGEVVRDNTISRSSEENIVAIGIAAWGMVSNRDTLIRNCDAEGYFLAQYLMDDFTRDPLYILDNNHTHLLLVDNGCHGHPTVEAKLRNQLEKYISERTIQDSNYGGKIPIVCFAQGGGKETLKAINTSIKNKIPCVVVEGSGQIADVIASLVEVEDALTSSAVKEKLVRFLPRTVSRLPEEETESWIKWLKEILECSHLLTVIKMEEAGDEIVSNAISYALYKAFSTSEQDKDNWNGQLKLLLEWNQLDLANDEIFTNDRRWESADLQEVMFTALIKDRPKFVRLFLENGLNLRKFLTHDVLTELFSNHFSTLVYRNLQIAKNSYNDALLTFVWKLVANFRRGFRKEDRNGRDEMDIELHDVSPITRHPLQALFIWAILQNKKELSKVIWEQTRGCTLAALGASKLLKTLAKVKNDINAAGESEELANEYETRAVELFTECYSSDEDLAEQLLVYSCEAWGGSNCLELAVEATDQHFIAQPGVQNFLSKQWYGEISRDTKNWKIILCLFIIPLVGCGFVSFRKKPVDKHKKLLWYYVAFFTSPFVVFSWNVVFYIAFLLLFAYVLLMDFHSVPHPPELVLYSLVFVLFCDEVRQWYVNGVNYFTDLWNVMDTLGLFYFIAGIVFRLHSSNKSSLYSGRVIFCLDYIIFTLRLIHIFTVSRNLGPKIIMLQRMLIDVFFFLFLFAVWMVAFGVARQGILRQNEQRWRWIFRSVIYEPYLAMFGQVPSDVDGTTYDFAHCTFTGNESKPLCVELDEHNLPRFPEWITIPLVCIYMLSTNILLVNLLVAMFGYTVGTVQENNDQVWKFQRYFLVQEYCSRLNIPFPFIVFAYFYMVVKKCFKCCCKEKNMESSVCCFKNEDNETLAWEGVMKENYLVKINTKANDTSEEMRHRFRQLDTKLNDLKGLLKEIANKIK
Procedure: as §1

T1 sequence (Q7Z2W7 whole entry): as above

Structure (SMILES)	activation at 5 µM [1]	other results
CC(C)C1CCC(C)(C)CC1(CO)CO (single isomer, unassigned) [Compound 30, (2-isopropyl-5,5-dimethylcyclohexane-1,1-diyl)dimethanol]	71%	
CC(C)[C@@H]1CC[C@@H](C)CC12COC1(C[C@H](C)CC[C@H]1C(C)C)OC2 (stereo partly drawn) [Compound 7, (1S,4R,10S,13R)-1,10-diisopropyl-4,13-dimethyl-7,16-dioxadispiro [5.2.5^90.2^6]hexadecane]	0%	
CC(C)[C@@H]1CC[C@@H](C)CC1(C=O)C=O [Compound 8, (2S,5R)-2-isopropyl-5-methylcyclohexane-1,1-dicarbaldehyde]	6%	
CC(=O)OCC1(COC(C)=O)C[C@H](C)CC[C@H]1C(C)C [Compound 9, ((2S,5R)-2-isopropyl-5-methylcyclohexane-1,1-diyl)bis(methylene) diacetate]	0%	
CC1CC(C)(C)CC(CO)(CO)C1 (stereo not drawn) [Compound 10, (3,3,5-trimethylcyclohexane-1,1-diyl)dimethanol]	10%	
CC1CC(C)(C)CC2(COC(C)OC2)C1 (stereo not drawn) [Compound 11, 3,8,8,10-tetramethyl-2,4-dioxaspiro[5.5]undecane]	3%	
CC1CC(C)(C)CC2(COC(C)(C)OC2)C1 (stereo not drawn) [Compound 12, 3,3,8,8,10-pentamethyl-2,4-dioxaspiro[5.5]undecane]	1%	
CCC1(C)OCC2(CO1)C[C@H](C)CC[C@H]2C(C)C (stereo partly drawn) [Compound 13, (7S,1OR)-3-ethyl-7-isopropyl-3,10-dimethyl-2,4-dioxaspiro[5.5]undecane]	1%	
CCCC1OCC2(CO1)C[C@H](C)CC[C@H]2C(C)C (stereo partly drawn) [Compound 14, (7S,1OR)-7-isopropyl-10-methyl-3-propyl-2,4-dioxaspiro[5.5]undecane]	-1%	
CC(C)C1OCC2(CO1)C[C@H](C)CC[C@H]2C(C)C (stereo partly drawn) [Compound 15, (7S,1OR)-3,7-diisopropyl-10-methyl-2,4-dioxaspiro[5.5]undecane]	-6%	
CCC(C)C1OCC2(CO1)C[C@H](C)CC[C@H]2C(C)C (stereo partly drawn) [Compound 16, (7S,1OR)-3-(sec-butyl)-7-isopropyl-10-methyl-2,4-dioxaspiro[5.5]undecane]	-1%	
COCC1(COC)C[C@H](C)CC[C@H]1C(C)C [Compound 17, (2S,5R)-2-isopropyl-1,1-bis(methoxymethyl)-5-methylcyclohexane]	1%	
CC(C)[C@@H]1CC[C@@H](C)CC12COC(c1ccccc1)OC2 (stereo partly drawn) [Compound 18, (7S,1OR)-7-isopropyl-10-methyl-3-phenyl-2,4-dioxaspiro[5.5]undecane]	3%	
CC1(C)CCCC(CO)(CO)C1 [Compound 20, (3,3-dimethylcyclohexane-1,1-diyl)dimethanol]	4%	
CC(C)[C@@H]1CC[C@@H](C)CC1(COC(=O)CCC(=O)O)COC(=O)CCC(=O)O [Compound 21, 4,4′-((((2S,5R)-2-isopropyl-5-methylcyclohexane-1,1-diyl)bis (methylene))bis(oxy))bis(4-oxobutanoic acid)]	-2%	
CC(C)[C@@H]1CC[C@@H](C)CC12COC(C)(c1ccccc1)OC2 (stereo partly drawn) [Compound 22, (7S,1OR)-7-isopropyl-3,10-dimethyl-3-phenyl-2,4-dioxaspiro[5.5]undecane]	13%	
CC(C)[C@@H]1CC[C@@H](C)CC12COC(c1ccccn1)OC2 (stereo partly drawn) [Compound 23, 2-((7S,10R)-7-isopropyl-10-methyl-2,4-dioxaspiro[5.5]undecan-3-yl) pyridine]	4%	
CC(C)[C@@H]1CC[C@@H](C)CC12COC(c1cccs1)OC2 (stereo partly drawn) [Compound 24, (7S,1OR)-7-isopropyl-10-methyl-3-(thiophen-2-yl)-2,4-dioxaspiro[5.5]undecane]	3%	

Structure (SMILES)	activation at 5 µM [1]	other results
CSCCC1OCC2(CO1)C[C@H](C)CC[C@H]2C(C)C (stereo partly drawn) [Compound 25, (7S,1OR)-7-isopropyl-10-methyl-3-(2-(methylthio)ethyl)-2,4-dioxaspiro [5.5]undecane]	3%	
CC1OCC2(CCCC(C)(C)C2)CO1 (stereo not drawn) [Compound 26, 3,8,8-trimethyl-2,4-dioxaspiro[5.5]undecane]	3%	
CCC(C)C1CCCCC1(CO)CO (stereo not drawn) [Compound 27, (2-(sec-butyl)cyclohexane-1,1-diyl)dimethanol]	40%	
CCOC(=O)C1OCC2(CO1)C[C@H](C)CC[C@H]2C(C)C (stereo partly drawn) [Compound 28, Ethyl (7S,1OR)-7-isopropyl-10-methyl-2,4-dioxaspiro[5.5]undecane-3-carboxylate]	5%	
CC(C)[C@@H]1CC[C@@H](C)CC1(CCO)CCO [Compound 29, 2,2′-((2S,5R)-2-isopropyl-5-methylcyclohexane-1,1-diyl)bis(ethan-1-ol)]	26%	
CCC(C)C1CCCCC12COC(C)OC2 (stereo not drawn) [Compound 31, 7-(sec-butyl)-3-methyl-2,4-dioxaspiro[5.5]undecane]	-2%	
CC(=O)OCC1(CO)C[C@H](C)CC[C@H]1C(C)C (stereo partly drawn) [Compound 32, ((2S,5R)-1-(hydroxymethyl)-2-isopropyl-5-methylcyclohexyl)methyl acetate]	4%	
CC1OCC2(CO1)CC(C)(C)CCC2C(C)C (stereo not drawn) [Compound 33, 7-isopropyl-3,10,10-trimethyl-2,4-dioxaspiro[5.5]undecane]	1%	
CC(C)[C@@H]1CC[C@@H](C)CC1(C(C)O)C(C)O (stereo partly drawn) [Compound 34, 1,1′-((2S,5R)-2-isopropyl-5-methylcyclohexane-1,1-diyl)bis(ethan-1-ol)]	21%	
C=C(C)[C@@H]1CC[C@@H](C)C[C@H]1C(CO)CO [Compound 35, 2-((1R,2R,5R)-5-methyl-2-(prop-1-en-2-yl)cyclohexyl)propane-1,3-diol]	14%	
C=C(C)[C@@H]1CC[C@@H](C)C[C@H]1C1COC(C)OC1 (stereo partly drawn) [Compound 36, 2-methyl-5-((1R,2R,5R)-5-methyl-2-(prop-1-en-2-yl)cyclohexyl)-1,3-dioxane]	6%	
CC(C)[C@@H]1CC[C@@H](C)CC1(CO)COCc1ccccc1 (stereo partly drawn) [Compound 38, ((2S,5R)-1-((benzyloxy)methyl)-2-isopropyl-5-methylcyclohexyl) methanol]	8%	
CC(C)[C@@H]1CC[C@@H](C)CC1(CO)C(=O)O (stereo partly drawn) [Compound 39, (2S,5R)-1-(hydroxymethyl)-2-isopropyl-5-methylcyclohexane-1-carboxylic acid]	16%	
CC1(C)CC(C)(C)CC(CO)(CO)C1 [Compound 40, (3,3,5,5-tetramethylcyclohexane-1,1-diyl)dimethanol]	8%	
CC(C)[C@@H]1CC[C@@H](C)C[C@H]1OC(=O)CCC(=O)O [Physcool ™, reference compound]		% activation vs iciline [2]: -2%
C=C(C)[C@@H]1CC[C@@H](C)C[C@H]1O [l-isopulegol, reference compound]		% activation vs iciline ([2]; concentration 123 μM): 51%
CC(C)[C@@H]1CC[C@@H](C)C[C@H]1O [l-menthol, reference compound]		% activation vs iciline ([2]; concentration 114 μM): 78%
CC1CCC(C(C)C)C(OC(=O)C(C)O)C1 (stereo not drawn) [menthyl lactate, reference compound]		% activation vs iciline ([2]; concentration 116 μM): 53%
